#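 Five compound concentrations were applied to cells in 96-well plates for 48 hours; endpoints were derived by simple linear interpolation of the resulting dose-response curve. The concentration for 50% growth inhibition is given as GI50. The concentration for full growth arrest is given as TGI.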
# Key:
# Assay in all cases: NCI-60 cell line screen, 48 h
# NCI-H226 lung = test system: NCI-H226 lung
# HT29 colon = test system: HT29 colon
# EKVX NSCLC = test system: EKVX NSCLC
# NCI/ADR-RES ovarian = test system: NCI/ADR-RES ovarian
# SR leukemia = test system: SR leukemia
# HOP-92 NSCLC = test system: HOP-92 NSCLC
# NCI-H23 lung = test system: NCI-H23 lung
# HS 578T breast = test system: HS 578T breast
# RXF 393 renal = test system: RXF 393 renal
# SK-MEL-5 melanoma = test system: SK-MEL-5 melanoma
# M14 melanoma = test system: M14 melanoma
# ACHN renal = test system: ACHN renal
# A549 NSCLC = test system: A549 NSCLC
# DU-145 prostate = test system: DU-145 prostate
# SK-MEL-2 melanoma = test system: SK-MEL-2 melanoma
# TK-10 renal = test system: TK-10 renal
# MCF7 breast = test system: MCF7 breast
# SK-OV-3 ovarian = test system: SK-OV-3 ovarian
# SF-539 CNS = test system: SF-539 CNS
# UACC-62 melanoma = test system: UACC-62 melanoma
# SN12C renal = test system: SN12C renal
# KM12 colon = test system: KM12 colon
# NCI-H460 lung = test system: NCI-H460 lung
# SW-620 colon = test system: SW-620 colon
# HCT-116 colon = test system: HCT-116 colon
# COLO 205 colon = test system: COLO 205 colon
# 786-0 renal = test system: 786-0 renal
# A498 renal = test system: A498 renal
# OVCAR-3 ovarian = test system: OVCAR-3 ovarian
# OVCAR-8 ovarian = test system: OVCAR-8 ovarian
# T-47D breast = test system: T-47D breast
# UO-31 renal = test system: UO-31 renal
# MDA-MB-435 = test system: MDA-MB-435
# UACC-257 melanoma = test system: UACC-257 melanoma
# MOLT-4 leukemia = test system: MOLT-4 leukemia
# K-562 leukemia = test system: K-562 leukemia
# HOP-62 NSCLC = test system: HOP-62 NSCLC
# CCRF-CEM leukemia = test system: CCRF-CEM leukemia
# RPMI-8226 leukemia = test system: RPMI-8226 leukemia
# BT-549 breast = test system: BT-549 breast
# MDA-MB-231 breast = test system: MDA-MB-231 breast
# IGROV1 ovarian = test system: IGROV1 ovarian
# PC-3 prostate = test system: PC-3 prostate
# SK-MEL-28 melanoma = test system: SK-MEL-28 melanoma
# OVCAR-4 ovarian = test system: OVCAR-4 ovarian
# SF-295 CNS = test system: SF-295 CNS
# MALME-3M melanoma = test system: MALME-3M melanoma
# HCT-15 colon = test system: HCT-15 colon
# U251 CNS = test system: U251 CNS
# HL-60(TB) leukemia = test system: HL-60(TB) leukemia
# NCI-H522 lung = test system: NCI-H522 lung
# SNB-75 CNS = test system: SNB-75 CNS
# CAKI-1 renal = test system: CAKI-1 renal
# SNB-19 CNS = test system: SNB-19 CNS
# SF-268 CNS = test system: SF-268 CNS
# HCC-2998 colon = test system: HCC-2998 colon
# LOX IMVI melanoma = test system: LOX IMVI melanoma
# OVCAR-5 ovarian = test system: OVCAR-5 ovarian
compound,measurement,setting,value
COc1cc(NCCCCCN=C(N)NC(N)=NC(C)C)c2ncccc2c1,GI50,NCI-H226 lung,7.52 µM
same,TGI,NCI-H226 lung,24.8 µM
same,GI50,HT29 colon,4.44 µM
same,TGI,HT29 colon,> 42.3 µM
same,GI50,EKVX NSCLC,2.28 µM
same,TGI,EKVX NSCLC,18.5 µM
same,GI50,NCI/ADR-RES ovarian,> 100 µM
same,TGI,NCI/ADR-RES ovarian,> 100 µM
same,GI50,SR leukemia,2.08 µM
same,TGI,SR leukemia,15.8 µM
same,GI50,HOP-92 NSCLC,1.75 µM
same,TGI,HOP-92 NSCLC,9.82 µM
same,GI50,NCI-H23 lung,0.401 µM
same,TGI,NCI-H23 lung,2.3 µM
same,GI50,HS 578T breast,2.45 µM
same,TGI,HS 578T breast,12.7 µM
same,GI50,RXF 393 renal,6.03 µM
same,TGI,RXF 393 renal,18.3 µM
same,GI50,SK-MEL-5 melanoma,1.44 µM
same,TGI,SK-MEL-5 melanoma,3.01 µM
same,GI50,M14 melanoma,6.12 µM
same,TGI,M14 melanoma,20.1 µM
same,GI50,ACHN renal,14.8 µM
same,TGI,ACHN renal,31.2 µM
same,GI50,A549 NSCLC,11.6 µM
same,TGI,A549 NSCLC,26.3 µM
same,GI50,DU-145 prostate,10.3 µM
same,TGI,DU-145 prostate,22.3 µM
same,GI50,SK-MEL-2 melanoma,1.95 µM
same,TGI,SK-MEL-2 melanoma,5.36 µM
same,GI50,TK-10 renal,6.14 µM
same,TGI,TK-10 renal,19.9 µM
same,GI50,MCF7 breast,0.0313 µM
same,TGI,MCF7 breast,0.16 µM
same,GI50,SK-OV-3 ovarian,10.9 µM
same,TGI,SK-OV-3 ovarian,23.5 µM
same,GI50,SF-539 CNS,2.3 µM
same,TGI,SF-539 CNS,12.8 µM
same,GI50,UACC-62 melanoma,2.69 µM
same,TGI,UACC-62 melanoma,8.96 µM
same,GI50,SN12C renal,2.32 µM
same,TGI,SN12C renal,14.8 µM
same,GI50,KM12 colon,1.07 µM
same,TGI,KM12 colon,3.28 µM
same,GI50,NCI-H460 lung,4.49 µM
same,TGI,NCI-H460 lung,18.1 µM
same,GI50,SW-620 colon,0.927 µM
same,TGI,SW-620 colon,14 µM
same,GI50,HCT-116 colon,0.392 µM
same,TGI,HCT-116 colon,10.5 µM
same,GI50,COLO 205 colon,0.468 µM
same,TGI,COLO 205 colon,1.74 µM
same,GI50,786-0 renal,12.2 µM
same,TGI,786-0 renal,26.6 µM
same,GI50,A498 renal,13.8 µM
same,TGI,A498 renal,28.1 µM
same,GI50,OVCAR-3 ovarian,0.217 µM
same,TGI,OVCAR-3 ovarian,0.759 µM
same,GI50,OVCAR-8 ovarian,3.08 µM
same,TGI,OVCAR-8 ovarian,17.2 µM
same,GI50,T-47D breast,0.302 µM
same,TGI,T-47D breast,1.71 µM
same,GI50,UO-31 renal,27.1 µM
same,TGI,UO-31 renal,> 100 µM
same,GI50,MDA-MB-435,3.61 µM
same,TGI,MDA-MB-435,14.7 µM
same,GI50,UACC-257 melanoma,1.04 µM
same,TGI,UACC-257 melanoma,4.81 µM
same,GI50,MOLT-4 leukemia,0.518 µM
same,TGI,MOLT-4 leukemia,11 µM
same,GI50,K-562 leukemia,0.607 µM
same,TGI,K-562 leukemia,19.3 µM
same,GI50,HOP-62 NSCLC,5.14 µM
same,TGI,HOP-62 NSCLC,19.1 µM
same,GI50,CCRF-CEM leukemia,2.2 µM
same,TGI,CCRF-CEM leukemia,17.4 µM
same,GI50,RPMI-8226 leukemia,1.26 µM
same,TGI,RPMI-8226 leukemia,20 µM
same,GI50,BT-549 breast,2.03 µM
same,TGI,BT-549 breast,5.61 µM
same,GI50,MDA-MB-231 breast,0.531 µM
same,TGI,MDA-MB-231 breast,4.47 µM
same,GI50,IGROV1 ovarian,0.228 µM
same,TGI,IGROV1 ovarian,0.809 µM
same,GI50,PC-3 prostate,0.972 µM
same,TGI,PC-3 prostate,13.8 µM
same,GI50,SK-MEL-28 melanoma,2.92 µM
same,TGI,SK-MEL-28 melanoma,10.4 µM
same,GI50,OVCAR-4 ovarian,0.0363 µM
same,TGI,OVCAR-4 ovarian,0.633 µM
same,GI50,SF-295 CNS,13 µM
same,TGI,SF-295 CNS,29.2 µM
same,GI50,MALME-3M melanoma,0.43 µM
same,TGI,MALME-3M melanoma,1.91 µM
same,GI50,HCT-15 colon,34.1 µM
same,TGI,HCT-15 colon,> 100 µM
same,GI50,U251 CNS,1.69 µM
same,TGI,U251 CNS,11.8 µM
same,GI50,HL-60(TB) leukemia,0.575 µM
same,TGI,HL-60(TB) leukemia,3.46 µM
same,GI50,NCI-H522 lung,1.18 µM
same,TGI,NCI-H522 lung,4.58 µM
same,GI50,SNB-75 CNS,0.666 µM
same,TGI,SNB-75 CNS,4.4 µM
same,GI50,CAKI-1 renal,> 73.1 µM
same,TGI,CAKI-1 renal,> 100 µM
same,GI50,SNB-19 CNS,2.56 µM
same,TGI,SNB-19 CNS,12.8 µM
same,GI50,SF-268 CNS,0.689 µM
same,TGI,SF-268 CNS,13.8 µM
same,GI50,HCC-2998 colon,0.952 µM
same,TGI,HCC-2998 colon,4.96 µM
same,GI50,LOX IMVI melanoma,0.495 µM
same,TGI,LOX IMVI melanoma,2.79 µM
same,GI50,OVCAR-5 ovarian,6.09 µM
same,TGI,OVCAR-5 ovarian,20.2 µM

# Source: PubChem BioAssay (NCI)
